Among the data in US12590091B2, “1H-pyrrolo[3,2-C]pyridine and 1H-pyrrolo[2,3-C]pyridine derivatives as TLR9 inhibitors for the treatment of fibrosis” (BRISTOL-MYERS SQUIBB COMPANY, priority 2020, dated 2026) are IC50 values, retold here.

Bounds are passed on as bounds.

The target in one experiment is T1, human TLR7 (Homo sapiens, UniProt Q9NYK1).
T1 construct: host or cells: HEK-Blue cells
T1 sequence (Q9NYK1 27-1049): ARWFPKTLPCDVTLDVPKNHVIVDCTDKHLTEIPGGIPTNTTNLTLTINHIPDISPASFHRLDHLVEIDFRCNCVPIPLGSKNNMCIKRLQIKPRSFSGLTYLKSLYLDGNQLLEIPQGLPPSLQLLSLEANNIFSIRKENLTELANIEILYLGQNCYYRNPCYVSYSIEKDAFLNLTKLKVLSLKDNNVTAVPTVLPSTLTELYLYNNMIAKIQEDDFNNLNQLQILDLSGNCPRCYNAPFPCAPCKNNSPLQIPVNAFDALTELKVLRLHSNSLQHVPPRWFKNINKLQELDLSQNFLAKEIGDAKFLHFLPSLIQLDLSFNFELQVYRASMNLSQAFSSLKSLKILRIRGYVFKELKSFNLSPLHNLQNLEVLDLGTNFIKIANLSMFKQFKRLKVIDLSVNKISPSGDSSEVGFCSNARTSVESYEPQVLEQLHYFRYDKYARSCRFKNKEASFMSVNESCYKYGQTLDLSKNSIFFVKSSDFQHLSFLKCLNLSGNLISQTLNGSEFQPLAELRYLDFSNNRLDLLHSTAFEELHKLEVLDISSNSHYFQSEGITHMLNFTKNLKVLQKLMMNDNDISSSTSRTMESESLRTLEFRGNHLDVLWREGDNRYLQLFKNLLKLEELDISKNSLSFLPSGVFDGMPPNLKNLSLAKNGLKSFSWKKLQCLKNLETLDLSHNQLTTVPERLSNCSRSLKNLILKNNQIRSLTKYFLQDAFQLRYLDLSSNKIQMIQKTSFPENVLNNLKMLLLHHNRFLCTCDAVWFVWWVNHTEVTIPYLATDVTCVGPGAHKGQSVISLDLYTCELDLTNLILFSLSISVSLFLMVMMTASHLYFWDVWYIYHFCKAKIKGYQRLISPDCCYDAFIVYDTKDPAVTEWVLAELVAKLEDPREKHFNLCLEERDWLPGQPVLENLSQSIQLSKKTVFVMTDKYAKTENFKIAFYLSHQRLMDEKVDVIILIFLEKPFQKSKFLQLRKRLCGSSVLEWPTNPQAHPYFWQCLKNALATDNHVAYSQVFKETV
The experiment can be described thus: TLR7 inhibition reporter assay (HEK-Blue cells, SEAP reporter). It counts as cell-based. To be noted: HEK-Blue cells overexpressing human TLR7, stimulated with gardiquimod 7.5 μM, 22 hour incubation. The procedure, abridged:
(§1)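 Agonists used: gardiquimod 7.5 μM (TLR7), R848 15.9 μM (TLR8), ODN2006 5 nM (TLR9), added after 30 min room-temperature compound pre-treatment (0.05 nM–50 μM) of receptor-overexpressing HEK-Blue cells. SEAP reporter (NF-κB/AP-1 driven) read after 22 h at 37 °C; inhibition scaled between agonist+DMSO and reference-inhibitor wells.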

A further experiment deals with T2, human TLR8 (Homo sapiens, UniProt Q9NR97).
T2 construct: host or cells: HEK-Blue cells
T2 sequence (Q9NR97 27-1041): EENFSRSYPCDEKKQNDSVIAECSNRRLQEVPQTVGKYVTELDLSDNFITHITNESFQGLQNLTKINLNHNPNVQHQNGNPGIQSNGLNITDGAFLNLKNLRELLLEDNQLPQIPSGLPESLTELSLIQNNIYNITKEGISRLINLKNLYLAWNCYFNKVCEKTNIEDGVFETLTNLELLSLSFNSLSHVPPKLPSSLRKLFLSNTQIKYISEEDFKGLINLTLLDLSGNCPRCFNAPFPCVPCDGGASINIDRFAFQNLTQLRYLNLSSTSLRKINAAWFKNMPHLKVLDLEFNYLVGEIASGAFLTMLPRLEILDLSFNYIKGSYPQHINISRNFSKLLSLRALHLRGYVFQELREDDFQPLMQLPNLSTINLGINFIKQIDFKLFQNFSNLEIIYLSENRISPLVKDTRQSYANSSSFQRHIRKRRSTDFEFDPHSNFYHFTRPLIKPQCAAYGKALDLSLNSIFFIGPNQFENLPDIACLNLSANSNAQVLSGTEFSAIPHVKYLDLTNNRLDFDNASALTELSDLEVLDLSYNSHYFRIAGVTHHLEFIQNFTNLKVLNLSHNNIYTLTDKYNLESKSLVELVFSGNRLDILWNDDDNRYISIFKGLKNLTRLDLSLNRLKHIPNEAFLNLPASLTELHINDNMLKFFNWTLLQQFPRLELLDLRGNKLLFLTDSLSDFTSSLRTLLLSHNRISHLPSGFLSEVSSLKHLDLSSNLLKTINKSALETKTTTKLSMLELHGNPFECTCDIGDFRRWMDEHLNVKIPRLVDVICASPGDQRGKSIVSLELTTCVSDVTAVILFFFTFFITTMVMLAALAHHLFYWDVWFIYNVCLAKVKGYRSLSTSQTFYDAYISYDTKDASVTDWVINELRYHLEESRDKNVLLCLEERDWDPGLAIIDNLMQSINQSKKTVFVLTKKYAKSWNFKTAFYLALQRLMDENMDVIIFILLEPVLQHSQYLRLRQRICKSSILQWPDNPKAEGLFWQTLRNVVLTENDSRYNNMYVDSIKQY
The experiment can be described thus: TLR8 inhibition reporter assay (HEK-Blue cells, SEAP reporter). It counts as cell-based. The note with it: HEK-Blue cells overexpressing human TLR8, stimulated with R848 15.9 μM, 22 hour incubation. The procedure, abridged: as §1

As usually defined, the IC50 is the midpoint of a concentration-inhibition curve. Consider `COCCN1C2CCC1CN(c1ccc(-c3cc4c(cc(-c5ccc(S(C)(=O)=O)cc5)n4C)c(C)n3)cc1)C2` [Example 74, 6-(4-(8-(2-methoxyethyl)-3,8-diazabicyclo[3.2.1]octan-3-yl)phenyl)-1,4-dimethyl-2-(4-(methylsulfonyl)phenyl)-1H-pyrrolo[3,2-c]pyridine], for which the IC50 against human TLR7 was found to be 1600 nM; against human TLR8 it was 19400 nM.
As for `COCCN1C2CCC1CN(c1ccc(-c3cc4c(cc(-c5ccc(S(C)(=O)=O)cc5)n4C)c(C)n3)cc1F)C2` [Example 75, 6-(3-fluoro-4-(8-(2-methoxyethyl)-3,8-diazabicyclo[3.2.1]octan-3-yl)phenyl)-1,4-dimethyl-2-(4-(methylsulfonyl)phenyl)-1H-pyrrolo[3,2-c]pyridine], the IC50 against human TLR7 is 2200 nM; at human TLR8, 9600 nM.
Regarding `Cc1nc(-c2ccc(N3CC4CCC(C3)N4CCCO)cc2)cc2c1cc(-c1ccc(S(C)(=O)=O)cc1)n2C` [Example 76, 3-(3-(4-(1,4-dimethyl-2-(4-(methylsulfonyl)phenyl)-1H-pyrrolo[3,2-c]pyridin-6-yl)phenyl)-3,8-diazabicyclo[3.2.1]octan-8-yl)propan-1-ol], the figures for the IC50 against human TLR7 and at human TLR8 were 600 nM and 18300 nM, respectively.
For `Cc1nc(-c2ccc(N3CC4CCC(C3)N4CCCO)c(F)c2)cc2c1cc(-c1ccc(S(C)(=O)=O)cc1)n2C` [Example 77, 3-(3-(4-(1,4-dimethyl-2-(4-(methylsulfonyl)phenyl)-1H-pyrrolo[3,2-c]pyridin-6-yl)-2-fluorophenyl)-3,8-diazabicyclo[3.2.1]octan-8-yl)propan-1-ol], in that order: 1900 nM and 19200 nM.
For `COCCN1C2CCC1CN(c1cc(F)c(-c3cc4c(cc(-c5ccc(S(C)(=O)=O)cc5)n4C)c(C)n3)cc1F)C2` [Example 78, 6-(2,5-difluoro-4-(8-(2-methoxyethyl)-3,8-diazabicyclo[3.2.1]octan-3-yl)phenyl)-1,4-dimethyl-2-(4-(methylsulfonyl)phenyl)-1H-pyrrolo[3,2-c]pyridine], in that order: 2700 nM and 9400 nM.
For `Cc1nc(-c2cc(F)c(N3CC4CCC(C3)N4CCCO)cc2F)cc2c1cc(-c1ccc(S(C)(=O)=O)cc1)n2C` [Example 79, 3-(3-(4-(1,4-dimethyl-2-(4-(methylsulfonyl)phenyl)-1H-pyrrolo[3,2-c]pyridin-6-yl)-2,5-difluorophenyl)-3,8-diazabicyclo[3.2.1]octan-8-yl) propan-1-ol], in that order: 2700 nM and 9500 nM.
Take `Cc1nc(-c2ccc(N3CCN(CC(C)C)CC3)c(F)c2F)cc2c1cc(-c1ccc(S(C)(=O)=O)cc1)n2C` [Example 82, 6-(2,3-difluoro-4-(4-isobutylpiperazin-1-yl)phenyl)-1,4-dimethyl-2-(4-(methylsulfonyl)phenyl)-1H-pyrrolo[3,2-c]pyridine]: the values for the IC50 against human TLR7 and on human TLR8 were 6400 nM and > 50000 nM, respectively.
Taken in the same sequence, the figures for `Cc1nc(-c2ccc(C3(O)CCN(C4CC4)CC3)cc2)cc2c1cc(-c1ccc(S(C)(=O)=O)cc1)n2C` [Example 87, 1-cyclopropyl-4-(4-(1,4-dimethyl-2-(4-(methylsulfonyl)phenyl)-1H-pyrrolo[3,2-c]pyridin-6-yl)phenyl)piperidin-4-ol] were 2200 nM and 4000 nM.
Taken in the same sequence, the figures for `Cc1nc(-c2ccc(C3(O)CCN(C(C)C)CC3)cc2)cc2c1cc(-c1ccc(S(C)(=O)=O)cc1)n2C` [Example 88, 4-(4-(1,4-dimethyl-2-(4-(methylsulfonyl)phenyl)-1H-pyrrolo[3,2-c]pyridin-6-yl)phenyl)-1-isopropylpiperidin-4-ol] were 6500 nM and 10500 nM.
On to `Cc1nc(-c2ccc(N3CCN4CCCC4C3)c(F)c2F)cc2c1cc(-c1ccc(S(C)(=O)=O)cc1)n2C` (centres unmarked) [Example 99, 6-(2,3-difluoro-4-(hexahydropyrrolo[1,2-a]pyrazin-2(1H)-yl)phenyl)-1,4-dimethyl-2-(4-(methylsulfonyl)phenyl)-1H-pyrrolo[3,2-c]pyridine], for which the IC50 against human TLR7 was determined as 1500 nM; against human TLR8 it was 6000 nM.
Taken in the same sequence, the figures for `Cc1nc(-c2ccc(C3(O)CC4CCC(C3)N4C(C)C)c(F)c2)cc2c1cc(-c1ccc(S(C)(=O)=O)cc1)n2C` [Example 100, (1R,3r,5S)-3-(4-(1,4-dimethyl-2-(4-(methylsulfonyl)phenyl)-1H-pyrrolo[3,2-c]pyridin-6-yl)-2-fluorophenyl)-8-isopropyl-8-azabicyclo[3.2.1]octan-3-ol] were 7100 nM and 1300 nM.
Taken in the same sequence, the figures for `CCN1C2CCC1CC(O)(c1ccc(-c3cc4c(cc(-c5ccc(S(C)(=O)=O)cc5)n4C)c(C)n3)cc1F)C2` [Example 101, (1R,3r,5S)-3-(4-(1,4-dimethyl-2-(4-(methylsulfonyl)phenyl)-1H-pyrrolo[3,2-c]pyridin-6-yl)-2-fluorophenyl)-8-ethyl-8-azabicyclo[3.2.1]octan-3-ol] were 5700 nM and 5100 nM.
For `Cc1nc(-c2ccc(C3(O)CC4CCC(C3)N4C)c(F)c2)cc2c1cc(-c1ccc(S(C)(=O)=O)cc1)n2C` [Example 102, (1R,3r,5S)-3-(4-(1,4-dimethyl-2-(4-(methylsulfonyl)phenyl)-1H-pyrrolo[3,2-c]pyridin-6-yl)-2-fluorophenyl)-8-methyl-8-azabicyclo[3.2.1]octan-3-ol], in that order: 5500 nM and 1000 nM.
Regarding `Cc1nc(-c2ccc(C3(O)CCN(C(C)(C)C)CC3)c(F)c2)cc2c1cc(-c1ccc(S(C)(=O)=O)cc1)n2C` [Example 104, 1-(tert-butyl)-4-(4-(1,4-dimethyl-2-(4-(methylsulfonyl)phenyl)-1H-pyrrolo[3,2-c]pyridin-6-yl)-2-fluorophenyl)piperidin-4-ol], the figures for the IC50 at human TLR7 and against human TLR8 were 2200 nM and 2100 nM, respectively.
Consider `Cc1nc(-c2ccc([C@@]3(O)CCN(C(C)C)C(C)(C)C3)c(F)c2)cc2c1cc(-c1ccc(S(C)(=O)=O)cc1)n2C` [Example 105, (R)-4-(4-(1,4-dimethyl-2-(4-(methylsulfonyl)phenyl)-1H-pyrrolo[3,2-c]pyridin-6-yl)-2-fluorophenyl)-1-isopropyl-2,2-dimethylpiperidin-4-ol], for which the IC50 at human TLR7 is 1100 nM; at human TLR8 it was 200 nM.
Taken in the same sequence, the figures for `Cc1nc(-c2ccc([C@]3(O)CCN(C(C)C)C(C)(C)C3)c(F)c2)cc2c1cc(-c1ccc(S(C)(=O)=O)cc1)n2C` [Example 106, (S)-4-(4-(1,4-dimethyl-2-(4-(methylsulfonyl)phenyl)-1H-pyrrolo[3,2-c]pyridin-6-yl)-2-fluorophenyl)-1-isopropyl-2,2-dimethylpiperidin-4-ol] were 1500 nM and 700 nM.
